We go through 47 compounds from ChEMBL document CHEMBL1122344, “Pyridazinones. 2. Synthesis and antisecretory and antiulcer activities of thiourea and 2-cyanoguanidine derivatives” (1983).

One may read the ED50 as the dose at which the effect has come halfway, by size or by number of responders. By inhibition in vivo is commonly meant the percentage by which the read-out fell short of the control.

Holding throughout (format): functional
The species entered for experiment [1] is Rattus norvegicus. Description: Dose required to inhibit ulcer induced by stress in rats.
Experiment [2] is filed under the species Rattus norvegicus. The experiment is described as follows: Dose required to inhibit gastric secretory activity in pylorus lygated rats. Particulars: Stomach.
In experiment [3] the test system is Rattus norvegicus. Description: Gastric antisecretory activity at the dose of 100 mg/kg in pylorus lygated rats.

Each structure is given as a SMILES string.

Consider `CN(C)/C(=N/CCn1nc(-c2ccccc2)ccc1=O)NC#N`, for which the ED50 in experiment [1] was above 100 mg/kg; in experiment [2], 62.8 mg/kg. Besides, the inhibition in vivo at 100 mg/kg in experiment [3] is 63.9%.

In turn, `C/N=C(/NC#N)NCCCn1nc(-c2ccccc2)cc(C)c1=O` yielded an ED50 in experiment [2] above 100 mg/kg. This compound returned an inhibition in vivo at 100 mg/kg in experiment [3] of 42.8%.

As to `CC/N=C(\S)NCCCCn1nc(-c2ccccc2)ccc1=O`, the ED50 in experiment [1] amounted to 19.8 mg/kg; in experiment [2], 37.2 mg/kg. Besides, the inhibition in vivo at 100 mg/kg in experiment [3] is 67.7%.

Take `CN/C(=N/CCCCn1nc(-c2ccc(OC)cc2)ccc1=O)NC#N`: in experiment [2], the ED50 is above 100 mg/kg. The compound also gave an inhibition in vivo at 100 mg/kg in experiment [3] of 48.5%.

With `C/N=C(\S)NCCCCn1nc(-c2ccccc2)ccc1=O`, the ED50 was 17.3 mg/kg in experiment [1] and 28.9 mg/kg in experiment [2]. This compound also yielded an inhibition in vivo at 100 mg/kg in experiment [3] of 87.1%.

`C/N=C(/NC#N)NCCCCn1nc(-c2ccccc2)cc(C)c1=O` had an ED50 in experiment [2] of 60.8 mg/kg. In addition, in experiment [3], the inhibition in vivo at 100 mg/kg came to 68.6%.

In the case of `O=c1ccc(-c2ccccc2)nn1CCCC/N=C(\S)Nc1cccc(F)c1`, in experiment [2], the ED50 is above 100 mg/kg. The compound also had an inhibition in vivo at 100 mg/kg in experiment [3] of 30.4%.

For `C/N=C(\S)NCCCn1nc(-c2ccccc2)ccc1=O`, the ED50 is 58 mg/kg in experiment [1] and above 100 mg/kg in experiment [2]. Besides, 100 mg/kg produced 38.9% inhibition in vivo in experiment [3].

As for `C/N=C(/NC#N)NCCCCn1nc(-c2ccccc2)c(C)cc1=O`, in experiment [2], the ED50 is above 100 mg/kg. The inhibition in vivo at 100 mg/kg in experiment [3] turned out to be 46.4%.

On to `CC/N=C(\S)NCCCn1nc(-c2ccccc2)ccc1=O`, for which the ED50 in experiment [1] was 88.2 mg/kg; in experiment [2], above 100 mg/kg. Further, testing at 100 mg/kg in experiment [3] gave an inhibition in vivo of 39%.

In the case of `CN(C)/C(=N/CCCCCCn1nc(-c2ccccc2)ccc1=O)NC#N`, the ED50 stood at 92.5 mg/kg in experiment [1] and 93.1 mg/kg in experiment [2]. For the same compound, in experiment [3], at 100 mg/kg the inhibition in vivo was 58.4%.

In the case of `O=c1ccc(-c2ccccc2)nn1CCCCNC(=S)Nc1ccc(Cl)cc1`, the ED50 in experiment [2] is above 100 mg/kg. Further, 100 mg/kg produced 43.2% inhibition in vivo in experiment [3].

Regarding `C/N=C(/NC#N)NCCCn1nc(-c2ccccc2)ccc1=O`, the ED50 in experiment [1] was 78.1 mg/kg; in experiment [2], above 100 mg/kg. This compound registered an inhibition in vivo at 100 mg/kg in experiment [3] of 40.5%.

As for `CC/N=C(/NC#N)NCCCCn1nc(-c2ccccc2)ccc1=O`, the ED50 turned out to be 60.7 mg/kg in experiment [1] and 92 mg/kg in experiment [2]. In addition, the inhibition in vivo at 100 mg/kg in experiment [3] is 58.8%.

For `N#CNC(=N)NCCCCCn1nc(-c2ccccc2)ccc1=O`, the ED50 in experiment [2] was above 100 mg/kg. Moreover, at 100 mg/kg the inhibition in vivo in experiment [3] was 31%.

`C/N=C(/NC#N)N(C)CCCCn1nc(-c2ccccc2)ccc1=O` came in with an ED50 in experiment [2] above 100 mg/kg. Further, the inhibition in vivo at 100 mg/kg in experiment [3] amounted to 27%.

As for `C/N=C(/NC#N)NCCCCCCn1nc(-c2ccccc2)ccc1=O`, the ED50 in experiment [1] and in experiment [2] was above 100 mg/kg each time. The same compound had an inhibition in vivo at 100 mg/kg in experiment [3] of 31.7%.

For the compound `O=c1ccc(-c2ccccc2)nn1CCCCNC(=S)Nc1ccccc1`, the ED50 in experiment [1] and in experiment [2] was above 100 mg/kg throughout. In experiment [3], the inhibition in vivo at 100 mg/kg worked out at 38.4%.

For `C/N=C(/NC#N)NCCCCCn1nc(-c2ccccc2)c(C)cc1=O`, in experiment [2], the ED50 is above 100 mg/kg. This compound yielded an inhibition in vivo at 100 mg/kg in experiment [3] of 28.5%.

`C/N=C(/NC#N)NCCCCCn1nc(-c2ccccc2)cc(C)c1=O`: in experiment [2], the ED50 was above 100 mg/kg. This compound also displayed an inhibition in vivo at 100 mg/kg in experiment [3] of 33.8%.

With `CN(C)/C(=N/CCCCCn1nc(-c2ccccc2)ccc1=O)NC#N`, the figures for the 50% effective dose (ED50) in experiment [1] and in experiment [2] were 53.1 mg/kg and 81.5 mg/kg, respectively. The inhibition in vivo at 100 mg/kg in experiment [3] was determined as 63.9%.

For the compound `CC/N=C(\S)NCCCCCn1nc(-c2ccccc2)ccc1=O`, the ED50 in experiment [2] came out at 51.8 mg/kg. In addition, the inhibition in vivo at 100 mg/kg in experiment [3] is 66.4%.

`CC/N=C(/NC#N)NCCCCCn1nc(-c2ccccc2)ccc1=O`: the ED50 amounted to 60.3 mg/kg in experiment [1] and 100 mg/kg in experiment [2]. In experiment [3], this compound yielded an inhibition in vivo at 100 mg/kg of 48.2%.

Take `C/N=C(/NC#N)NCCCCn1nc(-c2ccc(Cl)cc2)ccc1=O`: the 50% effect level in experiment [2] (ED50) was put at a dose of 100 mg/kg. For the same compound, in experiment [3], the inhibition in vivo at 100 mg/kg is 51%.

In the case of `CN(C)/C(=N/CCCCn1nc(-c2ccccc2)ccc1=O)NC#N`, the ED50 in experiment [1] is 52.9 mg/kg; in experiment [2] it was 30.3 mg/kg. In experiment [3], this compound yielded an inhibition in vivo at 100 mg/kg of 80.7%.

With `C/N=C(\S)NCCCCCn1nc(-c2ccccc2)ccc1=O`, the figures for the ED50 in experiment [1] and in experiment [2] were 42.1 mg/kg and 35.3 mg/kg, respectively. This compound displayed an inhibition in vivo at 100 mg/kg in experiment [3] of 68.9%.

Compound `C/N=C(\S)NCCn1nc(-c2ccccc2)ccc1=O` yielded an ED50 in experiment [1] above 100 mg/kg. This compound yielded an inhibition in vivo at 100 mg/kg in experiment [3] of 23.3%.

In experiment [2], `CCC/N=C(/NC#N)NCCCCCn1nc(-c2ccccc2)ccc1=O` came in with an ED50 above 100 mg/kg. This compound gave an inhibition in vivo at 100 mg/kg in experiment [3] of 27.5%.

`C=CCNC(=S)NCCCCn1nc(-c2ccccc2)ccc1=O`: the figures for the ED50 in experiment [1] and in experiment [2] were 78.6 mg/kg and above 100 mg/kg, respectively. 100 mg/kg produced 27.1% inhibition in vivo in experiment [3].

Turning to `C/N=C(\S)NCCCCn1nc(C)ccc1=O`, the ED50 in experiment [2] was above 100 mg/kg. The inhibition in vivo at 100 mg/kg in experiment [3] amounted to 44.5%.

Consider `C/N=C(/NC#N)NCCCCn1nc(N(C)C)ccc1=O`, for which the ED50 in experiment [2] was above 100 mg/kg. This compound displayed an inhibition in vivo at 100 mg/kg in experiment [3] of 26.3%.

In experiment [2], `CCC/N=C(/NC#N)NCCCCn1nc(-c2ccccc2)ccc1=O` returned an ED50 above 100 mg/kg. At 100 mg/kg the inhibition in vivo in experiment [3] was 26.3%.

With `CC/N=C(/NC#N)NCCCn1nc(C)ccc1=O`, the ED50 in experiment [2] is above 100 mg/kg. Further, testing at 100 mg/kg in experiment [3] gave an inhibition in vivo of 34.5%.

In the case of `O=c1ccc(-c2ccccc2)nn1CCCC/N=C(\S)Nc1ccc(F)cc1`, the ED50 in experiment [2] is above 100 mg/kg. In addition, the inhibition in vivo at 100 mg/kg in experiment [3] is 45.6%.

For the compound `CC/N=C(/NC#N)NCCCCCCn1nc(-c2ccccc2)ccc1=O`, the ED50 in experiment [1] and in experiment [2] was above 100 mg/kg each time. At 100 mg/kg the inhibition in vivo in experiment [3] was 29.1%.

Consider `CNC(=S)CCCCCn1nc(-c2ccccc2)ccc1=O`, for which the figures for the ED50 in experiment [1] and in experiment [2] were 18.3 mg/kg and 23.8 mg/kg, respectively. For the same compound, the inhibition in vivo at 100 mg/kg in experiment [3] worked out at 90.3%.

In the case of `CC/N=C(/NC#N)NCCCCn1nc(-c2ccccc2)c(C)cc1=O`, in experiment [2], the ED50 was above 100 mg/kg. In experiment [3], this compound displayed an inhibition in vivo at 100 mg/kg of 38.8%.

`C/N=C(/NC#N)NCCCCn1nc(-c2ccc(C)cc2)ccc1=O`: in experiment [2], the ED50 is above 100 mg/kg. Besides, testing at 100 mg/kg in experiment [3] gave an inhibition in vivo of 45.7%.

`N/C(S)=N/CCCCn1nc(-c2ccccc2)ccc1=O`: in experiment [2], it took a dose of 36.3 mg/kg to reach the 50% effect level (ED50). In experiment [3], this compound came in with an inhibition in vivo at 100 mg/kg of 72%.

On to `C/N=C(/NC#N)NCCCCCn1nc(-c2ccccc2)ccc1=O`, for which the results for the ED50 in experiment [1] and in experiment [2] were 76.2 mg/kg and 100 mg/kg, respectively. Moreover, the inhibition in vivo at 100 mg/kg in experiment [3] was 47.6%.

With `CC/N=C(/NC#N)NCCCn1nc(-c2ccccc2)ccc1=O`, the ED50 in experiment [1] worked out at 88.5 mg/kg; in experiment [2], 78.3 mg/kg. In experiment [3], this compound had an inhibition in vivo at 100 mg/kg of 62.9%.

In experiment [2], `CCC/N=C(/NC#N)NCCCn1nc(-c2ccccc2)ccc1=O` displayed an ED50 of 100 mg/kg. The compound further gave an inhibition in vivo at 100 mg/kg in experiment [3] of 52.9%.

For the compound `N#CNC(=N)NCCCCn1nc(-c2ccccc2)ccc1=O`, the ED50 in experiment [1] amounted to 59.3 mg/kg; in experiment [2] it was 77.2 mg/kg. The same compound had an inhibition in vivo at 100 mg/kg in experiment [3] of 61.2%.

On to `CC/N=C(/NC#N)NCCCCn1nc(-c2ccccc2)cc(C)c1=O`, for which, in experiment [2], the ED50 was above 100 mg/kg. The same compound came in with an inhibition in vivo at 100 mg/kg in experiment [3] of 42.5%.

Turning to `CN(C)/C(=N/CCCn1nc(-c2ccccc2)ccc1=O)NC#N`, the ED50 in experiment [1] came out at 93.1 mg/kg; in experiment [2], 53 mg/kg. The compound further had an inhibition in vivo at 100 mg/kg in experiment [3] of 72.2%.

As to `C/N=C(/NC#N)NCCCCn1nc(Nc2ccccc2)ccc1=O`, the 50% effective dose (ED50) in experiment [2] was above 100 mg/kg. In addition, the inhibition in vivo at 100 mg/kg in experiment [3] came out at 24.4%.

The compound `CN/C(=N\CCSCc1nc[nH]c1C)NC#N` [CIMETIDINE] registered an ED50 in experiment [1] of 43.2 mg/kg. At 100 mg/kg the inhibition in vivo in experiment [3] was 80.6%.
